Assay results from patent publication US20240239755A1, “SUBSTITUTED PYRIDAZINONES, SALTS OR N-OXIDES THEREOF AND THEIR USE AS HERBICIDALLY ACTIVE SUBSTANCES” (Bayer Aktiengesellschaft, priority 2021, published 2024).

Assays:
Assay type in all cases: in vivo
[1] = test system: Abutilon theophrasti (ABUTH); assay: Herbicidal pre-emergence action, 1280 g/ha (Table A1); conditions: visual grading after ca. 3 weeks vs untreated controls
Excerpt: (§1) Seeds of mono- and dicotyledonous weed plants were sown in plastic pots (double sowings with one species of mono- and one species of dicotyledonous weed plants per pot), in sandy loam, and covered with soil. The compounds according to the invention, formulated in the form of wettable powders (WP) or as emulsifiable concentrates (EC), were applied to the surface of the covering soil as an aqueous suspension or as an emulsion, with the addition of 0.5% of an additive, at an application rate of 600 litres of water per hectare (converted). Following treatment, the pots were placed in a greenhouse and kept under optimum growth conditions for the test plants. The visual grading of the damage to the test plants was carried out after ca. 3 weeks in comparison to untreated controls (herbicidal effect in percent (%): 100% effect=plants have died, 0% effect=as control plants). Tables A1 to A11 below, show the effects of selected compounds of the general formula (I) according to Table 1 on various harmful plants and an application rate corresponding to 1280 g/ha obtained by the experimental procedure mentioned above.

[2] = test system: Veronica persica (VERPE); assay: Herbicidal post-emergence action, 1280 g/ha, VERPE; conditions: visual grading vs untreated controls
Excerpt: (§2) Seeds of mono- and dicotyledonous weed plants were sown in plastic pots (double sowings with one species of mono- and one species of dicotyledonous weed plants per pot), in sandy loam, covered with soil and grown under controlled growth conditions. 2 to 3 weeks after sowing, the test plants were sprayed in the single-leaf stage. The compounds according to the invention, formulated in the form of wettable powders (WP) or as emulsifiable concentrates (EC), were sprayed onto the green plant parts as an aqueous suspension or as an emulsion, with the addition of 0.5% of an additive, at an application rate of 600 litres of water per hectare (converted). The test plants were placed in the greenhouse for ca. 3 weeks under optimum growth conditions, and then the effect of the preparations was assessed visually in comparison with untreated controls (herbicidal effect in percent (%): 100% effect=plants have died, 0% effect=as control plants).
(§3) Tables B1 to B11 below, show the effects of selected compounds of the general formula (I) according to Table 1 on various harmful plants using an application rate corresponding to 1280 g/ha obtained by the experimental procedure mentioned above.

[3] = test system: Stellaria media (STEME); assay: Herbicidal pre-emergence action, 1280 g/ha (Table A9); conditions: visual grading after ca. 3 weeks vs untreated controls
Excerpt: as §1

[4] = test system: Amaranthus retroflexus (AMARE); assay: Herbicidal post-emergence action, 1280 g/ha, AMARE; conditions: visual grading vs untreated controls
Excerpt: as §2, §3

[5] = test system: Matricaria inodora (MATIN); assay: Herbicidal post-emergence action, 1280 g/ha (Table B6); conditions: visual assessment after ca. 3 weeks vs untreated controls
Excerpt: as §2, with “plants). Tables B1 to B11 below, show the effects of selected compounds of the general formula (I) according to Table 1 on various harmful plants using an application rate corresponding to 1280 g/ha obtained by the experimental procedure mentioned above.” for “plants).”

[6] = test system: Stellaria media (STEME); assay: Herbicidal post-emergence action, 320 g/ha, STEME; conditions: visual grading after ca. 3 weeks
Excerpt: as §2
(§4) Tables D1 to D8 below, show the effects of selected compounds of the general formula (I) according to Table 1 on various harmful plants using an application rate corresponding to 320 g/ha obtained by the experimental procedure mentioned above.

[7] = test system: Lolium rigidum (LOLRI); assay: Herbicidal pre-emergence action, 1280 g/ha (Table A5); conditions: visual grading after ca. 3 weeks vs untreated controls
Excerpt: as §1

[8] = test system: Abutilon theophrasti (ABUTH); assay: Herbicidal post-emergence action, 1280 g/ha (Table B1); conditions: visual assessment after ca. 3 weeks vs untreated controls
Excerpt: as §2, with “plants). Tables B1 to B11 below, show the effects of selected compounds of the general formula (I) according to Table 1 on various harmful plants using an application rate corresponding to 1280 g/ha obtained by the experimental procedure mentioned above.” for “plants).”

[9] = test system: Stellaria media (STEME); assay: Herbicidal post-emergence action, 1280 g/ha (Table B9); conditions: visual assessment after ca. 3 weeks vs untreated controls
Excerpt: as §2, with “plants). Tables B1 to B11 below, show the effects of selected compounds of the general formula (I) according to Table 1 on various harmful plants using an application rate corresponding to 1280 g/ha obtained by the experimental procedure mentioned above.” for “plants).”

[10] = test system: Amaranthus retroflexus (AMARE); assay: Herbicidal post-emergence action, 320 g/ha, AMARE; conditions: visual grading after ca. 3 weeks
Excerpt: as §2, §4

[11] = test system: Matricaria inodora (MATIN); assay: Herbicidal pre-emergence action, 1280 g/ha (Table A6); conditions: visual grading after ca. 3 weeks vs untreated controls
Excerpt: as §1

[12] = test system: Lolium rigidum (LOLRI); assay: Herbicidal post-emergence action, 1280 g/ha (Table B5); conditions: visual assessment after ca. 3 weeks vs untreated controls
Excerpt: as §2, with “plants). Tables B1 to B11 below, show the effects of selected compounds of the general formula (I) according to Table 1 on various harmful plants using an application rate corresponding to 1280 g/ha obtained by the experimental procedure mentioned above.” for “plants).”

[13] = test system: Stellaria media (STEME); assay: Herbicidal pre-emergence action, 320 g/ha, STEME; conditions: visual grading after ca. 3 weeks
Excerpt: as §1, with “plants).” for “plants). Tables A1 to A11 below, show the effects of selected compounds of the general formula (I) according to Table 1 on various harmful plants and an application rate corresponding to 1280 g/ha obtained by the experimental procedure mentioned above.”
Tables C1 to C6 below, show the effects of selected compounds of the general formula (I) according to Table 1 on various harmful plants using an application rate corresponding to 320 g/ha obtained by the experimental procedure mentioned above.

[14] = test system: Abutilon theophrasti (ABUTH); assay: Herbicidal post-emergence action, 320 g/ha, ABUTH; conditions: visual grading after ca. 3 weeks
Excerpt: as §2, §4

[15] = test system: Kochia scoparia (KCHSC); assay: Herbicidal post-emergence action, 1280 g/ha (Table B4); conditions: visual assessment after ca. 3 weeks vs untreated controls
Excerpt: as §2, with “plants). Tables B1 to B11 below, show the effects of selected compounds of the general formula (I) according to Table 1 on various harmful plants using an application rate corresponding to 1280 g/ha obtained by the experimental procedure mentioned above.” for “plants).”

[16] = test system: Veronica persica (VERPE); assay: Herbicidal post-emergence action, 320 g/ha, VERPE; conditions: visual grading after ca. 3 weeks
Excerpt: as §2, §4

[17] = test system: Kochia scoparia (KCHSC); assay: Herbicidal post-emergence action, 320 g/ha, KCHSC; conditions: visual grading after ca. 3 weeks
Excerpt: as §2, §4

[18] = test system: Matricaria inodora (MATIN); assay: Herbicidal post-emergence action, 320 g/ha, MATIN; conditions: visual grading after ca. 3 weeks
Excerpt: as §2, §4

[19] = test system: Amaranthus retroflexus (AMARE); assay: Herbicidal pre-emergence action, 1280 g/ha (Table A11); conditions: visual grading after ca. 3 weeks vs untreated controls
Excerpt: as §1

[20] = test system: Kochia scoparia (KCHSC); assay: Herbicidal pre-emergence action, 1280 g/ha (Table A4); conditions: visual grading after ca. 3 weeks vs untreated controls
Excerpt: as §1

[21] = test system: Poa annua (POAAN); assay: Herbicidal pre-emergence action, 1280 g/ha (Table A7); conditions: visual grading after ca. 3 weeks vs untreated controls
Excerpt: as §1

Compound	herbicidal effect VERPE [2]	herbicidal effect STEME [3]	herbicidal effect AMARE [4]	herbicidal effect MATIN [5]	herbicidal effect STEME [6]	herbicidal effect LOLRI [7]	herbicidal effect ABUTH [8]	herbicidal effect STEME [9]	herbicidal effect AMARE [10]	herbicidal effect MATIN [11]	herbicidal effect LOLRI [12]	herbicidal effect ABUTH [14]	herbicidal effect KCHSC [15]	herbicidal effect VERPE [16]	herbicidal effect KCHSC [17]	herbicidal effect MATIN [18]	herbicidal effect POAAN [21]	further results
CCOC(=O)Oc1c(C)nn(C)c(=O)c1Oc1cc(Cl)ccc1C1CC1 [Example I-070]	90%	90%	100%	90%	90%	100%	100%	100%	90%	100%	100%	100%						herbicidal effect ABUTH [1]: 100%; herbicidal effect STEME [13]: 90%
Cc1nn(C)c(=O)c(Oc2cc(F)c(F)cc2Br)c1O [Example I-087]	90%		100%	100%		90%	100%		90%				100%	90%	90%	90%		
CCOC(=O)Oc1c(C)nn(C)c(=O)c1Oc1ccccc1OC(F)(F)F [Example I-013]	100%	100%	90%	100%	100%	100%	100%	100%	90%	100%	100%		100%	90%	100%	90%		herbicidal effect AMARE [19]: 90%; herbicidal effect KCHSC [20]: 90%
Cc1ccccc1Oc1c(O)c(C)nn(C)c1=O [Example I-017]	90%		90%				90%		90%			90%	100%	90%				
Cc1nn(C)c(=O)c(Oc2ccccc2C(F)(F)F)c1O [Example I-007, 5-hydroxy-2,6-dimethyl-4-[2-(trifluoromethyl)phenoxy]pyridazin-3-one]	90%	100%	90%	90%		90%		100%	90%		90%		100%				100%	
Cc1nn(C)c(=O)c(Oc2ccccc2F)c1O [Example I-021]																	90%	
